Measurements taken from EP4741389A1, “KAT6 INHIBITOR” (Shanghai Qilu Pharmaceutical Research and Development …, priority 2023, dated 2025).

Key:
ZR-75-1 cells = assay: ZR-75-1 cell proliferation assay (CellTiter-Glo); format: cell-based; details: Homo sapiens, ZR-75-1, 240 h, total culture period of 10 days, read-out: ZR-75-1 Proliferation Inhibition IC50
Experimental: II. ZR-75-1 cell proliferation assay
• 1. ZR-75-1 cells were seeded in 96-well plates and cultured overnight in an incubator at 37°C & 5% CO2. • 2. Compounds were diluted using culture medium and added to the 96-well plates. The plates were placed back into the incubator for continued culture. Every 5 days, the cells were trypsinized, counted, and re-seeded. After the cells had fully adhered, compounds were added again for incubation, for a total culture period of 10 days. • 3. After the culture period, 60 µL of CellTiter-Glo reagent (Promega, G7573) was added to each well. The plates were protected from light and shaken for 2 minutes to lyse the cells, followed by further incubation at room temperature, protected from light, for 30 minutes. • 4. Luminescence signals were read using a BMG PHERAstar FSX. IC50 values were calculated by nonlinear regression using a four-parameter logistic equation in GraphPad Prism 8 software.

KAT6A = biological target: T1, KAT6A (Homo sapiens, UniProt Q92794); assay: KATs acetyltransferase enzyme activity assay (TR-FRET), KAT6A; format: biochemical; details: Biotin-H3 (1-21) and AcCOA, 90 minutes at room temperature
T1 construct: purchased Active Motif 81223
Experimental: (§1) I. KATs acetyltransferase enzyme activity assay
• 1. The inhibitory effect of compounds on the acetyltransferase activity of KATs was evaluated using the Time-Resolved Fluorescence Resonance Energy Transfer (TR-FRET) assay. The assay was conducted in 384-well plates using Tris-HCl buffer. • 2. Compounds were diluted in DMSO and transferred to 384-well plates. […] Subsequently, 2.5 µL of a mixture containing KAT6A/KAT6B: Biotin-H3 (1-21, Genscript, C6829GL060) or KAT5/7/8: Bio-H4 (1-25, Genscript, C736BGL100) AcCOA (Sigma, A2056) was added, and the reaction proceeded at room temperature for 90 minutes. • 4. After the reaction, a detection mixture containing Europium-anti-acetyl-Histone H4 Lysine (H4Kac pan) Antibody (Perkin Elmer, TRF0412) and LANCE Ultra ULight™-Streptavidin in LANCE™ Detection buffer (10x) (Perkin Elmer, CR97-100) was added, followed by incubation at room temperature for 60 minutes. • 5. […] IC50 values were calculated by nonlinear regression using a four-parameter logistic equation in GraphPad Prism 8 software.

KAT6B = biological target: T2, KAT6B (Homo sapiens, UniProt Q8WYB5); assay: KATs acetyltransferase enzyme activity assay (TR-FRET), KAT6B; format: biochemical; details: Biotin-H3 (1-21) and AcCOA, 90 minutes at room temperature
T2 construct: purchased Active Motif 81224
Experimental: as §1
• 1. The inhibitory effect of compounds on the acetyltransferase activity of KATs was evaluated using the Time-Resolved Fluorescence Resonance Energy Transfer (TR-FRET) assay. The assay was conducted in 384-well plates using Tris-HCl buffer. • 2. Compounds were diluted in DMSO and transferred to 384-well plates. Enzyme solutions (KAT6: active motif (kit), 81223; KAT6B: active motif, 81224; KAT5: SignalChem, K314-380G; KAT7: ICE, S2210F-H21HF; KAT8: Active motif, 81225) were added and the mixture was incubated at room temperature for 15 minutes. • 3. Subsequently, 2.5 µL of a mixture containing KAT6A/KAT6B: Biotin-H3 (1-21, Genscript, C6829GL060) or KAT5/7/8: Bio-H4 (1-25, Genscript, C736BGL100) AcCOA (Sigma, A2056) was added, and the reaction proceeded at room temperature for 90 minutes. • 4. After the reaction, a detection mixture containing Europium-anti-acetyl-Histone H4 Lysine (H4Kac pan) Antibody (Perkin Elmer, TRF0412) and LANCE Ultra ULight™-Streptavidin in LANCE™ Detection buffer (10x) (Perkin Elmer, CR97-100) was added, followed by incubation at room temperature for 60 minutes. • 5. HTRF signals were measured using a BMG PHERAstar FSX (Ratio: 665nm/620nm). IC50 values were calculated by nonlinear regression using a four-parameter logistic equation in GraphPad Prism 8 software.

[1] = test system: ZR-75-1 H3K23 Acetylation; assay: Histone H3 acetylation assay (H3K23 acetylation in ZR-75-1 cells); format: cell-based; details: Homo sapiens, 72 hours incubation, Odyssey CLx fluorescence, read-out: ZR-75-1 H3K23 Acetylation Inhibition IC50
Experimental: III. Histone H3 acetylation assay
• 1. ZR-75-1 cells were seeded at 5000 cells/40 µL per well in 384-well plates and cultured overnight in an incubator at 37°C & 5% CO2. • 2. 40 nL of serially diluted compounds were added to the 384-well plates, followed by further incubation for 72 hours. • 3. The supernatant was discarded, and 8 w/v% paraformaldehyde (final concentration was 4 w/v%) was added directly to the wells to fix the cells at room temperature. • 4. After washing twice with PBS, a permeabilization agent (40 µL of methanol) was added and incubated for 10 minutes to permeabilize the cell membranes. • 5. After washing twice with PBS, a blocking buffer was added and incubated at room temperature for 1 hour for blocking. • 6. The blocking buffer was discarded, and 20 µL of primary antibodies (recombinant Anti-Histone H3 (acetyl K23) antibody and Anti-Histone H4 antibody) diluted in blocking buffer (1:1000 by volume dilution) were added, followed by incubation at 4°C overnight. • 7. After washing three times with PBST (0.05 vol% Tween-20 in PBS), 20 µL of fluorescent secondary antibodies (IRDye 680RD Goat anti-MOUSE, Licor, 926-68070; IRDye 800CW Goat anti-Rabbit, Licor, 926-32211) diluted in blocking buffer (1:2000 by volume dilution) were added, followed by incubation at room temperature, protected from light, for 1 hour. Then, the plates were washed three times with PBST. • 8. Scanning was performed using an Odyssey CLx, and the fluorescence signal value for each well was quantified. IC50 values were calculated by nonlinear regression using a four-parameter logistic equation in GraphPad Prism 8 software.

T2 sequence (Q8WYB5 whole entry): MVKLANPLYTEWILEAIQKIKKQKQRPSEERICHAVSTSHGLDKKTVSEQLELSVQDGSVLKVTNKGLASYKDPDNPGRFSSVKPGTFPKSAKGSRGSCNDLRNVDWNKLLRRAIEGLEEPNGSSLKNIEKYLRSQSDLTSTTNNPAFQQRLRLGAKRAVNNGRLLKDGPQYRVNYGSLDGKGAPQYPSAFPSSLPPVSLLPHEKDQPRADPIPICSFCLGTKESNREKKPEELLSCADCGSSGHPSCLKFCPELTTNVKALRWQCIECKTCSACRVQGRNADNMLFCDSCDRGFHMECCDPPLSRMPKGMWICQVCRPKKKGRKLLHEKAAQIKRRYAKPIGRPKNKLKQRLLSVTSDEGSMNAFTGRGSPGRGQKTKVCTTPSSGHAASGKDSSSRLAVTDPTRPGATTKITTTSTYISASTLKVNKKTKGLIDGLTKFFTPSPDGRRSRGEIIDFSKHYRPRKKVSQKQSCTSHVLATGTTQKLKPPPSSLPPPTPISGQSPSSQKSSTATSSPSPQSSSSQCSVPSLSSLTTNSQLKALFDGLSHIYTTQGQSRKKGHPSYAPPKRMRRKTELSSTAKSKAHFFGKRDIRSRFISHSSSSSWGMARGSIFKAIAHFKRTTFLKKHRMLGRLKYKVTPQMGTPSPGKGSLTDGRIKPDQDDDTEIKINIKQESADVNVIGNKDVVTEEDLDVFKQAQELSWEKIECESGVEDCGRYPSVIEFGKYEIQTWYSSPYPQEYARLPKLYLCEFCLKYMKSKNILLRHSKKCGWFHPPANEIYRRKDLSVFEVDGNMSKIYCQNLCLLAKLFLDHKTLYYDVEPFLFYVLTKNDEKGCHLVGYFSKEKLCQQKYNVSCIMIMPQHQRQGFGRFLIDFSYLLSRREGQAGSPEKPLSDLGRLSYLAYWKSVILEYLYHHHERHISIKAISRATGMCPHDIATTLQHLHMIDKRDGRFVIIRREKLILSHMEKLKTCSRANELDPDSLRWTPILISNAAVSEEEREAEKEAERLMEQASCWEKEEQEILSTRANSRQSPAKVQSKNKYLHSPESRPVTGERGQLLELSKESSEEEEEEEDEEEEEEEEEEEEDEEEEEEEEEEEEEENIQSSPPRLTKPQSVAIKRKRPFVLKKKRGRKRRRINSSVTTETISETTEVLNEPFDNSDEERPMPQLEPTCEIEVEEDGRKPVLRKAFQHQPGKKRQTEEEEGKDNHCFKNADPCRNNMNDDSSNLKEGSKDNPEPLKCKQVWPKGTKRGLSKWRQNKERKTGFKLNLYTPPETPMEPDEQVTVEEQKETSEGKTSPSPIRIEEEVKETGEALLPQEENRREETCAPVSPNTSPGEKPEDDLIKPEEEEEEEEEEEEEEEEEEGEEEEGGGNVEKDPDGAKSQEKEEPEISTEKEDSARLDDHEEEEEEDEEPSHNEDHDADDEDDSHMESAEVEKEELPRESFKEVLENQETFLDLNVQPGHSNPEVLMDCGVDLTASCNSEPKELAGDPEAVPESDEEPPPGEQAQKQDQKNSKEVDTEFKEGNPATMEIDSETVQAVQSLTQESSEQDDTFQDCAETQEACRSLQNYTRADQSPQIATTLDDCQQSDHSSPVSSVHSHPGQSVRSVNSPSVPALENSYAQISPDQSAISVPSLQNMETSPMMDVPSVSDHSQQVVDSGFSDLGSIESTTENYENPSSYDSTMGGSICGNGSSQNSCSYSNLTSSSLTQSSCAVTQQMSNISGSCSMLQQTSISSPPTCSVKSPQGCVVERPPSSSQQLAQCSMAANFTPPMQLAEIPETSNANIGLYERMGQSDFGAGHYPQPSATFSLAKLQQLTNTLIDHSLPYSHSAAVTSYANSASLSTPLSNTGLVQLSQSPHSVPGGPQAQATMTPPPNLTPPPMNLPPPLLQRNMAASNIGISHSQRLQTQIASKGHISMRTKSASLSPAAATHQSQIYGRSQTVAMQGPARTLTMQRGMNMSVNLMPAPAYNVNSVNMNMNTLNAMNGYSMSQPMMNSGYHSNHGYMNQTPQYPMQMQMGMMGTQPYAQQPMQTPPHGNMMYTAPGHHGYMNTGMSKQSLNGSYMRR
T1 sequence (Q92794 488-778 limits assumed): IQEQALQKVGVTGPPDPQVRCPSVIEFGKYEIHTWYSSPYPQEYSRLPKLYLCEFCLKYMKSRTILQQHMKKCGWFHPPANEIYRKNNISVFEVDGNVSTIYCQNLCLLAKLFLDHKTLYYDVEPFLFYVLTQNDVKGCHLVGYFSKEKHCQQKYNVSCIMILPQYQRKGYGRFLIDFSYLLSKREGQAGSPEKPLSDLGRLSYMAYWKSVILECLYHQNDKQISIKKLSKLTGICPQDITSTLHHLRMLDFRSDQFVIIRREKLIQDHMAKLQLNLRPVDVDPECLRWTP

SMILES | IC50 (ZR-75-1 cells) [nM] | IC50 (KAT6A) [nM] | IC50 (KAT6B) [nM] | IC50 [1] [nM]
COc1ccc2c(c1S(=O)(=O)Nc1noc3cc(Cn4cccn4)cc(OC)c13)OC1CC21 (stereo not shown) [Compound 44, 4-Methoxy-N-[4-methoxy-6-(pyrazol-1-ylmethyl)-1,2-benzoxazol-3-yl]-la,6b-dihydro-1 H-cyclopropa[b]benzofuran-3-sulfonamide] | 0.3 | 1.7 | 8.6 | –
COc1ccc2c(c1S(=O)(=O)Nc1noc3cc(Cn4cccn4)c(C)c(OC)c13)OCC1CC21 (stereo not shown) [Compound 24, N-(6-((1H-Pyrazol-1-yl)methyl)-4-methoxy-5-methylbenzo[d]isoxazol-3-yl)-5-methoxy-1,1a,2,7b-tetrahydrocyclopropa[c]chromene-4-sulfonamide] | – | 3.1 | 34.4 | –
COc1ccc2c(c1S(=O)(=O)Nc1noc3cc(Oc4nccs4)cc(OC)c13)OC[C@@H]1C[C@H]21 [Compound 47, (1aR,7bS)-5-Methoxy-N-(4-methoxy-6-(thiazol-2-yloxy)benzo[d]isoxazol-3-yl)-1,1a,2,7 b-tetrahydrocyclopropa[c]chromene-4-sulfonamide] | – | 0.8 | 1.5 | 3.4
COc1ccc2c(c1S(=O)(=O)Nc1noc3cc(Cn4cccn4)c(C)c(OC)c13)OCC21CC1 [Compound 25, N-(6-((1H-Pyrazol-1-yl)methyl)-4-methoxy-5-methylbenzo[d]isoxazol-3-yl)-6-methoxy-2H-spiro[benzofuran-3,1'-cyclopropane]-7-sulfonamide] | – | 5.9 | 70.3 | –
CCc1c(Cn2cccn2)cc2onc(NS(=O)(=O)c3c(OC)ccc4c3OCCCO4)c2c1OC [Compound 26, N-(6-((1H-Pyrazol-1-yl)methyl)-5-ethyl-4-methoxybenzo[d]isoxazol-3-yl)-7-methoxy-3,4-dihydro-2H-benzo[b][1,4]dioxepine-6-sulfonamide] | – | 4.7 | 80.3 | –
COc1ccc2c(c1S(=O)(=O)Nc1noc3cc(Cn4cccn4)c(C)cc13)OCCCO2 [Compound 17, N-(6-((1H-Pyrazol-1-yl)methyl)-5-methylbenzo[d]isoxazol-3-yl)-7-methoxy-3,4-dihydro-2H-benzo [b] [1,4] dioxepine-6-sulfonamide] | 3.7 | – | – | –
[2H]C([2H])(c1cc(OC)c2c(NS(=O)(=O)c3c(OC)ccc4c3OCCCO4)noc2c1)n1cccn1 [Compound 43, N-(6-((1H-Pyrazol-1-yl)methyl-d2)-4-methoxybenzo[d]isoxazol-3-yl)-7-methoxy-3,4-di hydro-2H-benzo[b][1,4]dioxepine-6-sulfonamide] | 1 | 3.7 | 28.9 | –
COc1ccc2c(c1S(=O)(=O)Nc1noc3cc(Cn4cccn4)c4c(c13)OCCC4)OCCCO2 [Compound 22, N-(5-((1H-Pyrazol-1-yl)methyl)-3,4-dihydro-2H-chromeno[8,7-d]isoxazol-9-yl)-7-methoxy-3,4-dihydro-2H-benzo[b][1,4]dioxepine-6-sulfonamide] | 0.5 | 1.5 | 7.3 | –
COc1ccc2c(c1S(=O)(=O)Nc1noc3cc(Cn4cccn4)cc(OC)c13)OCC21COC1 [Compound 49, N-(6-((1H-Pyrazol-1-yl)methyl)-4-methoxybenzo[d]isoxazol-3-yl)-6-methoxy-2H-spiro[benzofuran-3,3'-oxetane]-7-sulfonamide] | – | 3 | 23.1 | 4.2
COc1cc2c(cc1S(=O)(=O)Nc1noc3cc(Cn4cccn4)cc(OC)c13)COCCO2 [Compound 9, N-(6-((1H-Pyrazol-1-yl)methyl)-4-methoxybenzo[d]isoxazol-3-yl)-8-methoxy-2,3-dihyd ro-5H-benzo[e][1,4]dioxepine-7-sulfonamide] | – | 1.6 | 9.5 | 2.1
[2H]C([2H])([2H])Oc1cc(Cn2cccn2)cc2onc(NS(=O)(=O)c3c(OC)ccc4c3OCCCO4)c12 [Compound 46, 7-Methoxy-N-[6-(pyrazol-1-ylmethyl)-4-(trideuteriomethoxy)-1,2-benzoxazol-3-yl]-3,4-dihydro-2H-1,5-benzodioxepine-6-sulfonamide] | 1 | 5.4 | 33.8 | –
CCOc1cc2c(NS(=O)(=O)c3c(OC)ccc4c3OCCCO4)noc2cc1Cn1cccn1 [Compound 18, N-(6-((1H-Pyrazol-1-yl)methyl)-5-ethoxybenzo[d]isoxazol-3-yl)-7-methoxy-3,4-dihydro-2H-benzo [b] [1,4] dioxepine-6-sulfonamide] | 22.1 | – | – | –
COc1ccc2c(c1S(=O)(=O)Nc1noc3cc(Oc4ccccn4)cc(OC)c13)OC[C@@H]1C[C@H]21 [Compound 48, (1aR,7bS)-5-Methoxy-N-(4-methoxy-6-(pyridin-2-yloxy)benzo[d]isoxazol-3-yl)-1,1a,2,7 b-tetrahydrocyclopropa [c] chromene-4-sulfonamide] | – | 1.7 | 15.6 | 17.9
[2H]C([2H])(c1cc(OC)c2c(NS(=O)(=O)c3c(OC)ccc4c3OC[C@@H]3C[C@H]43)noc2c1)n1cccn1 [Compound 42, (1aR,7bS)-N-(6-((1H-Pyrazol-1-yl)methyl-d2)-4-methoxybenzo[d]isoxazol-3-yl)-5-methoxy-1,1a,2,7b-tetrahydrocyclopropa[c]chromene-4-sulfonamide] | 0.1 | 1.1 | 1.6 | –
COc1cc2c(cc1S(=O)(=O)Nc1noc3cc(Cn4cccn4)cc(OC)c13)C1(CC1)CO2 [Compound 4, N-(6-((1H-Pyrazol-1-yl)methyl)-4-methoxybenzo[d]isoxazol-3-yl)-6-methoxy-2H-spiro[benzofuran-3,1'-cyclopropane]-5-sulfonamide] | – | 2 | 15 | –
[2H]C([2H])([2H])Oc1cc(Cn2cccn2)cc2onc(NS(=O)(=O)c3c(OC)ccc4c3OC[C@@H]3C[C@H]43)c12 [Compound 45, (1aR,7bS)-N-(6-((1H-Pyrazol-1-yl)methyl)-4-(methoxy-d3)benzo[d]isoxazol-3-yl)-5-met hoxy-1,1a,2,7b-tetrahydrocyclopropa[c]chromene-4-sulfonamide] | 0.04 | 0.6 | 1.4 | –
